As a reminder, the pIC50 is −log10 of the IC50, conventionally taken in molar units.

pIC50: −log10 of the molar value. Counter-ions that a name gives are not always drawn.

Among the data in patent publication US20240109853A1 (Shanghai Yao Yuan Biotechnology Co., Ltd., priority 2020, published 2024) are IC50 values, retold here.

In one experiment the target is ALPK1 (Homo sapiens (Human), UniProt Q96QP1). The experiment in a line: ALPK1 in vitro kinase assay (HTRF of TIFA phosphorylation). Type of experiment: biochemical.
Sequence of ALPK1 (Q96QP1 whole entry): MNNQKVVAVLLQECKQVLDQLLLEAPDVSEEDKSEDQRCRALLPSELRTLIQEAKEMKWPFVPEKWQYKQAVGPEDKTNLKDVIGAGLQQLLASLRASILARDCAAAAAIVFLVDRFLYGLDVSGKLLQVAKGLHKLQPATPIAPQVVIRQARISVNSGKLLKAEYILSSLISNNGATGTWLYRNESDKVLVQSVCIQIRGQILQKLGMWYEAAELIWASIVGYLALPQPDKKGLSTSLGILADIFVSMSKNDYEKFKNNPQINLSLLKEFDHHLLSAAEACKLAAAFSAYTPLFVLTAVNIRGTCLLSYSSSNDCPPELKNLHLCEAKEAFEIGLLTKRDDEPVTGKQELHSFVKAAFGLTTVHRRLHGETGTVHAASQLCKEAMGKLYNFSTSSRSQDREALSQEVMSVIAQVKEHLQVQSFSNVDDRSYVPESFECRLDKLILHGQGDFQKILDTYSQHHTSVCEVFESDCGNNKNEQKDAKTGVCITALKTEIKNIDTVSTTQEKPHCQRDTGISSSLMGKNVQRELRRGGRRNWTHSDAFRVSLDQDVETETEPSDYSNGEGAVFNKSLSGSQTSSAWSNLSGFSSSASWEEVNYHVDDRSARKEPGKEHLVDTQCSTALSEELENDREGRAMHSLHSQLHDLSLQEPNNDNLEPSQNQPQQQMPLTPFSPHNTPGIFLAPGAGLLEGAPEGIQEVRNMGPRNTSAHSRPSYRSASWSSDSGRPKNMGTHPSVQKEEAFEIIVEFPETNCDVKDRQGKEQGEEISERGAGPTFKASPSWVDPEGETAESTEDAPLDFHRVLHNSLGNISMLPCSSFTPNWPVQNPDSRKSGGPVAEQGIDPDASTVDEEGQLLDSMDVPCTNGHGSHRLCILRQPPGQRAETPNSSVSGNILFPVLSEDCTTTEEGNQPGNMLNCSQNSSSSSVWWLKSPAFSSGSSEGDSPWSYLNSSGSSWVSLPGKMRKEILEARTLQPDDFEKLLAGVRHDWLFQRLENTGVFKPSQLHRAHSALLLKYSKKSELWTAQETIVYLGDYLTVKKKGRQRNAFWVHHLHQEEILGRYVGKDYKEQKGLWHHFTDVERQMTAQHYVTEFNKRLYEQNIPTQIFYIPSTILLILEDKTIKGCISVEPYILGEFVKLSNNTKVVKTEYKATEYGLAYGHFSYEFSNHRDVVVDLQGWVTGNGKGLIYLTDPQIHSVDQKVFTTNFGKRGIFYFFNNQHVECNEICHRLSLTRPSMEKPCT
For experiment [1], the system named is ALPK1-dependent NFκB reporter gene activation in HEK293 cells stably expressing an NF-kB reporter (G9 cells). As to the kind of experiment: NFκB gene reporter alkaline phosphatase assay. The format is cell-based. Particulars: Homo sapiens, HEK293; read-out: NFkB assay IC50. In short, it runs like this: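 HEK293 G9 cells stably carrying an NF-kB alkaline phosphatase reporter were seeded at 10,000 cells/well in Freestyle 293 medium and attached overnight. They were pretreated with serially diluted compound for 30 min, then stimulated with D-glycero-D-manno-6-fluoro-heptose-1β-S-ADP. Reporter phosphatase was read with pNPP; IC50 from logistic fit.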

As to `C#C[C@@](C)(c1ccc(OC)cc1)c1csc(NC(=O)NCCO)n1` [Example A170, (S)-1-(2-hydroxyethyl)-3-(4-(2-(4-methoxyphenyl)but-3-yn-2-yl)thiazol-2-yl)urea], the values for the pIC50 (against ALPK1; in experiment [1]) were 8.10 and 6.34, respectively.
As to `CC(C)(c1ccc(Br)cc1)c1csc(NC(=O)NCc2ccc(N3CCN(CCO)CC3)nc2)n1` [Example A010, 1-(4-(2-(4-bromophenyl)propan-2-yl)thiazol-2-yl)-3-((6-(4-(2-hydroxyethyl)piperazin-1-yl)pyridin-3-yl)methyl)urea], the pIC50 against ALPK1 was 6.70; in experiment [1], 5.40.
For `CC(C)(c1ccc(Br)cc1)c1csc(NC(=O)NCCN)n1` [Example A210, 1-(2-aminoethyl)-3-(4-(2-(4-bromophenyl)propan-2-yl)thiazol-2-yl)urea] the same measures were 7.02 and 5.38.
For `CC(C)(c1ccc(Br)cc1)c1csc(NC(=O)NCc2ccnc(N3CCNCC3)c2F)n1` [Example A207, 1-(4-(2-(4-bromophenyl)propan-2-yl)thiazol-2-yl)-3-((3-fluoro-2-(piperazin-1-yl)pyridin-4-yl)methyl)urea] the same measures were 7.00 and 5.66.
For `CC(C)(c1ccc(Br)cc1)c1csc(NC(=O)NCc2ccc(N3CCC(CN)CC3)cc2)n1` [Example A211, 1-(4-(4-(aminomethyl)piperidin-1-yl)benzyl)-3-(4-(2-(4-bromophenyl)propan-2-yl)thiazol-2-yl)urea] the same measures were 7.03 and 5.59.
`C#CC(C)(c1ccc(Cl)cc1)c1csc(NC(=O)N2CCC(N)CC2)n1` (stereo not shown) [Example A265, 4-amino-N-(4-(2-(4-chlorophenyl)but-3-yn-2-yl)thiazol-2-yl)piperidine-1-carboxamide]: the figures for the pIC50 (against ALPK1; in experiment [1]) were 5.30 and 5.54, respectively.
For `CC(C)(c1ccc(F)cc1)c1csc(NC(=O)NCc2ccc(N3CCNCC3)cc2)n1` [Example A047, 1-(4-(2-(4-fluorophenyl)propan-2-yl)thiazol-2-yl)-3-(4-(piperazin-1-yl)benzyl)urea] the same measures were 6.78 and 5.68.
For `C#CC(C)(c1ccc(Cl)cc1)c1csc(NC(=O)NCCS(N)(=O)=O)n1` (stereo not shown) [Example A243, 2-(3-(4-(2-(4-chlorophenyl)but-3-yn-2-yl)thiazol-2-yl)ureido)ethane-1-sulfonamide] the same measures were 7.64 and 6.23.
The matching figures for `[2H]c1sc(NC(=O)NCCO)nc1[C@](C)(C#C)c1ccc(Cl)cc1` [Example A300, 1-(4-(2-(4-chlorophenyl)but-3-yn-2-yl)thiazol-2-yl)-3-(2-hydroxyethyl)urea]: 6.47 and 5.52.
As for `CC(C)(c1ccc(Cl)cc1)c1csc(NC(=O)NCc2cnc(N3CCNCC3)nc2)n1` [Example A084, 1-(4-(2-(4-chlorophenyl)propan-2-yl)thiazol-2-yl)-3-((2-(piperazin-1-yl)pyrimidin-5-yl)methyl)urea], the pIC50 at ALPK1 was 7.66; in experiment [1] it was 6.47.
For `C#CC(C)(c1ccc(Br)cc1)c1csc(NC(=O)NCCO)n1` (stereo not shown) [Example A159, 1-(4-(2-(4-bromophenyl)but-3-yn-2-yl)thiazol-2-yl)-3-(4-hydroxyethyl)urea] the same measures were 7.32 and 6.31.
The matching figures for `CCC(C)(c1ccc(Br)cc1)c1csc(NC(=O)NCc2ccc(N3CCNCC3)cc2)n1` (stereo not shown) [Example A039, 1-(4-(2-(4-bromophenyl)butan-2-yl)thiazol-2-yl)-3-(4-(piperazin-1-yl)benzyl)urea]: 6.72 and 6.15.
For `COc1ccc(C(C)(C)c2csc(NC(=O)NO)n2)cc1` [Example A144, 1-hydroxy-3-(4-(2-(4-methoxyphenyl)propan-2-yl)thiazol-2-yl)urea] the same measures were 6.81 and 5.76.
On to `C#C[C@@](C)(c1ccc(Cl)cc1)c1csc(NC(=O)NC(C)(C)CO)n1` (stereo in doubt) [Example A294, 1-(4-(2-(4-chlorophenyl)but-3-yn-2-yl)thiazol-2-yl)-3-(1-hydroxy-2-methylpropan-2-yl)urea], for which the pIC50 was 6.55 at ALPK1 and 5.52 in experiment [1].
In the case of `C#CC(C)(c1ccc(Cl)cc1)c1csc(NC(=O)N2CCNCC2)n1` (stereo not shown) [Example A308, N-(4-(2-(4-chlorophenyl)but-3-yn-2-yl)thiazol-2-yl)piperazine-1-carboxamide], the negative-log IC50 (pIC50) on ALPK1 is 5.81; in experiment [1] it was 5.27.
For `CC(C)Oc1cc(CNC(=O)Nc2nc(C(C)(C)c3ccc(Br)cc3)cs2)ccc1N1CCNCC1` [Example A221, 1-(4-(2-(4-bromophenyl)propan-2-yl)thiazol-2-yl)-3-(3-isopropoxy-4-(piperazin-1-yl)benzyl)urea] the same measures were 6.84 and 5.62.
Consider `CC(C)(c1ccc(Cl)c(F)c1)c1csc(NC(=O)NCc2cnc(N3CCNCC3)nc2)n1` [Example A179, 1-(4-(2-(4-chloro-3-fluorophenyl)propan-2-yl)thiazol-2-yl)-3-((2-(piperazin-1-yl)pyrimidin-5-yl)methyl)urea], for which the pIC50 against ALPK1 is 7.02; in experiment [1], 5.87.
Consider `CC(C)(c1ccc(Br)cc1)c1csc(NC(=O)NCc2ccc(C(N)=O)cc2)n1` [Example A008, 4-((3-(4-(2-(4-bromophenyl)propan-2-yl)thiazol-2-yl)ureido)methyl)benz-mide], for which the negative-log IC50 (pIC50) against ALPK1 was 8.10; in experiment [1], 6.15.
The matching figures for `CCCN1CCN(c2ccc(CNC(=O)Nc3nc(C(C)(C)c4ccc(OC)cc4)cs3)cc2C(N)=O)CC1` [Example A116, 5-((3-(4-(2-(4-methoxyphenyl)propan-2-yl)thiazol-2-yl)ureido)methyl)-2-(4-propylpiperazin-1-yl)benzamide]: 7.14 and 6.14.
The matching figures for `CC(C)(c1ccc(Br)cc1)c1csc(NC(=O)NCc2ccnc(N3CCNCC3)n2)n1` [Example A090, 1-(4-(2-(4-bromophenyl)propan-2-yl)thiazol-2-yl)-3-((2-(piperazin-1-yl)pyrimidin-4-yl)methyl)urea]: 6.75 and 5.95.
The matching figures for `COc1ccc(C(C)(C)c2csc(NC(=O)NCc3cc(F)c(N4CCNCC4)cc3F)n2)cc1` [Example A231, 1-(2,5-difluoro-4-(piperazin-1-yl)benzyl)-3-(4-(2-(4-methoxyphenyl)propan-2-yl)thiazol-2-yl)urea hydrochloride]: 7.57 and 5.47.
`CC(C)(c1ccc(Br)cc1)c1csc(NC(=O)NCCCN)n1` [Example A061, 1-(3-aminopropyl)-3-(4-(2-(4-bromophenyl)propan-2-yl)thiazol-2-yl)urea]: the results for the pIC50 (at ALPK1; in experiment [1]) were 6.71 and 5.70, respectively.
For `CC(C)(c1ccc(Br)cc1)c1csc(NC(=O)NCc2cnc(N3CCNCC3)nc2)n1` [Example A088, 1-(4-(2-(4-bromophenyl)propan-2-yl)thiazol-2-yl)-3-((2-(piperazin-1-yl)pyrimidin-5-yl)methyl)urea compound with methane (1:1)] the same measures were 7.89 and 5.84.
